How the values were obtained:
KHYG-1 = assay: drug sensitivity score (viability inhibition); higher = more sensitive; conditions: 72 h; IL2 2.5 ng/ml
Procedure: (§1)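 NK-cell leukemia/lymphoma cell lines (3,000 cells/well) were cultured with IL2 2.5 ng/ml in 384-well drug plates (5-8 concentrations over a 10,000-fold range) for 72 h at 37 C; viability was read with CellTiter-Glo. DSS is a normalised area under the dose-response curve; the experiment was repeated twice.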

NKL = assay: as above; conditions: 72 h; IL2 2.5 ng/ml
Procedure: as §1

YT = assay: as above; conditions: 72 h; IL2 2.5 ng/ml
Procedure: as §1

SNK6 = assay: as above; conditions: 72 h; IL2 2.5 ng/ml
Procedure: as §1

NK-92 = assay: as above; conditions: 72 h; IL2 2.5 ng/ml
Procedure: as §1

NK-YS = assay: as above; conditions: 72 h; IL2 2.5 ng/ml
Procedure: as §1

KAI3 = assay: as above; conditions: 72 h; IL2 2.5 ng/ml
Procedure: as §1

HEK293-SIE STAT3 Y640F = assay: drug sensitivity score (inhibition of STAT3 luciferase reporter); higher = stronger inhibition; conditions: 6 h; IL6 0 ng/ml
Procedure: (§2)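 HEK293 cells with a STAT3-inducible (SIE) luciferase reporter, stably expressing WT STAT3 (IL6 100 ng/ml) or Y640F STAT3 (no IL6), were incubated 6 h with drugs in 384-well plates (5-8 concentrations over a 10,000-fold range); luciferase was read with ONE-Glo. DSS is a normalised area under the dose-response curve; values are the mean of two experiments.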

HEK293-SIE STAT3 WT = assay: as above; conditions: 6 h; STAT3: WT; IL6 100 ng/ml
Procedure: as §2

| SMILES | drug sensitivity score (KHYG-1) | drug sensitivity score (NKL) | drug sensitivity score (YT) | drug sensitivity score (SNK6) | drug sensitivity score (NK-92) | drug sensitivity score (NK-YS) | drug sensitivity score (KAI3) | drug sensitivity score (HEK293-SIE STAT3 Y640F) | drug sensitivity score (HEK293-SIE STAT3 WT) |
| --- | --- | --- | --- | --- | --- | --- | --- | --- | --- |
| C=CCn1c(=O)c2cnc(Nc3ccc(N4CCN(C)CC4)cc3)nc2n1-c1cccc(C(C)(C)O)n1 [MK1775] | 24.5 DSS | 22.5 DSS | 19.8 DSS | 19.7 DSS | 23 DSS | 20.5 DSS | 19.9 DSS | 8.87 DSS | 9.88 DSS |
| Cc1ccc(C(=O)Nc2ccc(CN3CCN(C)CC3)c(C(F)(F)F)c2)cc1C#Cc1cnc2cccnn12 [Ponatinib] | 3.2 DSS | 4.93 DSS | 4.26 DSS | 0 DSS | 1.39 DSS | 2.28 DSS | 3.2 DSS | 2.8 DSS | 2.95 DSS |
| C[C@@H]1C=C2C(=O)O[C@@H]3CC[C@H](C1)[C@]23O [Galiellalactone] | 4.09 DSS | 1.09 DSS | 1.84 DSS | 6.92 DSS | 3.98 DSS | 3.55 DSS | 5 DSS | 0 DSS | 0 DSS |
| CN(Cc1cnc2nc(N)nc(N)c2n1)c1ccc(C(=O)N[C@@H](CCC(=O)O)C(=O)O)cc1 [Methotrexate] | 15.1 DSS | 8.04 DSS | 15.8 DSS | 21.2 DSS | 12.2 DSS | 18.8 DSS | 12.8 DSS | 0.233 DSS | 1.4 DSS |
| C[C@@]1(C(=O)Nc2ccc(F)nc2)CCCN1c1nc(Nc2cc(C3CC3)n[nH]2)c2cccn2n1 | 7.86 DSS | 2.75 DSS | 5.74 DSS | 10.9 DSS | 5.6 DSS | 11.1 DSS | 4.45 DSS | 8.23 DSS | 1.95 DSS |
| CC(C)(C)c1cnc(CSc2cnc(NC(=O)C3CCNCC3)s2)o1 [SNS-032] | 20.5 DSS | 29.4 DSS | 26.1 DSS | 10.5 DSS | 19.2 DSS | 30.3 DSS | 21.1 DSS | 18.9 DSS | 21.8 DSS |
| CC(C)NC[C@@H](C(=O)N1CCN(c2ncnc3c2[C@H](C)C[C@H]3O)CC1)c1ccc(Cl)cc1 [GDC-0068] | 3.15 DSS | 1.24 DSS | 0.319 DSS | 1.47 DSS | 0.75 DSS | 1.41 DSS | 0 DSS | 0.85 DSS | 4.1 DSS |
| CN1CCN(CCOc2cc(OC3CCOCC3)c3c(Nc4c(Cl)ccc5c4OCO5)ncnc3c2)CC1 [Saracatinib] | 2.88 DSS | 1.25 DSS | 2.46 DSS | 0.135 DSS | 3.28 DSS | 2.03 DSS | 2.15 DSS | 1.9 DSS | 0 DSS |
| CO[C@H]1C[C@@H]2CC[C@@H](C)[C@@](O)(O2)C(=O)C(=O)N2CCCC[C@H]2C(=O)O[C@H]([C@H](C)C[C@@H]2CC[C@@H](OCCO)[C@H](OC)C2)CC(=O)[C@H](C)/C=C(\C)[C@@H](O)[C@@H](OC)C(=O)[C@H](C)C[C@H](C)/C=C/C=C/C=C/1C [Everolimus] | 5.9 DSS | 17.4 DSS | 11.8 DSS | 12.2 DSS | 1.19 DSS | 16.8 DSS | 6.6 DSS | 8.9 DSS | 3.15 DSS |
| CC1(C)CCC(c2ccc(Cl)cc2)=C(CN2CCN(c3ccc(C(=O)NS(=O)(=O)c4ccc(N[C@H](CCN5CCOCC5)CSc5ccccc5)c(S(=O)(=O)C(F)(F)F)c4)cc3)CC2)C1 [Navitoclax] | 25.9 DSS | 22.4 DSS | 23.3 DSS | 39.1 DSS | 14.2 DSS | 27.6 DSS | 39.8 DSS | 0.5 DSS | 0 DSS |
| Cc1[nH]c2ccccc2c1CCNCc1ccc(/C=C/C(=O)NO)cc1 [Panobinostat] | 23.1 DSS | 24.2 DSS | 18.8 DSS | 21.9 DSS | 21.8 DSS | 23 DSS | 21.9 DSS | 4.7 DSS | 3.75 DSS |
| CN1CC[C@H](c2c(O)cc(O)c3c(=O)cc(-c4ccccc4Cl)oc23)[C@H](O)C1 [Alvocidib] | 21.8 DSS | 21.4 DSS | 23 DSS | 13.2 DSS | 22.6 DSS | 22.5 DSS | 24.1 DSS | 26.5 DSS | 29.5 DSS |
| O=[N+]([O-])c1ccc2c(c1)S(=O)(=O)C=C2 [Stattic] | 13.3 DSS | 10.7 DSS | 14.6 DSS | 14.1 DSS | 13.2 DSS | 12.4 DSS | 14.3 DSS | 7.37 DSS | 8.32 DSS |
| CCN(CC)CCOc1ccc(C(=C(Cl)c2ccccc2)c2ccccc2)cc1 [Clomifene] | 5.07 DSS | 4.4 DSS | 4.23 DSS | 5.13 DSS | 5.49 DSS | 2.67 DSS | 5.61 DSS | 0 DSS | 1.9 DSS |
| CNC(=O)c1cc(Oc2ccc(NC(=O)Nc3ccc(Cl)c(C(F)(F)F)c3)cc2)ccn1 [Sorafenib] | 0.013 DSS | 0 DSS | 0 DSS | 4.36 DSS | 0.365 DSS | 0.00415 DSS | 0 DSS | 1.6 DSS | 2.1 DSS |
| C[C@@H]1C[C@H]2[C@@H]3CCC4=CC(=O)C=C[C@]4(C)[C@@]3(F)[C@@H](O)C[C@]2(C)[C@@]1(O)C(=O)CO [Dexamethasone] | 15.6 DSS | 24.6 DSS | 9.73 DSS | 0 DSS | 0 DSS | 3.83 DSS | 1.14 DSS | 2.6 DSS | 1.8 DSS |
| NS(=O)(=O)c1cccc2c1C(=O)c1cccc(O)c1C2=O [LLL12] | 22.9 DSS | 24.9 DSS | 18.2 DSS | 28 DSS | 23.1 DSS | 15 DSS | 18.9 DSS | 12.4 DSS | 17.1 DSS |
| FC(F)c1nc2ccccc2n1-c1nc(N2CCOCC2)nc(N2CCOCC2)n1 [ZSTK474] | 2.23 DSS | 9.94 DSS | 7.9 DSS | 7.75 DSS | 12.8 DSS | 9.54 DSS | 5.42 DSS | 4.7 DSS | 2.77 DSS |
| C[C@@H]1CCN(C(=O)CC#N)C[C@@H]1N(C)c1ncnc2[nH]ccc12 [Tofacitinib] | 23.4 DSS | 19.8 DSS | 8.43 DSS | 15.5 DSS | 13.2 DSS | 12.3 DSS | 17.4 DSS | 9.05 DSS | 26 DSS |
| O=S(=O)(c1cccc2cnccc12)N1CCCNCC1 [Fasudil] | 1.2 DSS | 0.632 DSS | 1.44 DSS | 0.11 DSS | 2.52 DSS | 0.1 DSS | 2.61 DSS | 0 DSS | 1.9 DSS |
| Cc1cc(Nc2cc(CN3CCOCC3)c3nc(C)c(Cc4ccc(Cl)cc4F)n3n2)n[nH]1 [Gandotinib] | – | – | – | – | – | – | – | 8.4 DSS | 24 DSS |

— the supplement of paper PMC5722580
